Holding throughout (type): physicochemical
Data set [1] in a line: Reverse-dialysis release/diffusion of pure difluprednate solution (USP 2 apparatus, 100 kD MWCO dialysis tubes). The conditions noted are these: pH 7.4 phosphate buffer:ethanol 80:20, 34° C. As to the method: Release of difluprednate from pure drug solution was studied using a reverse-dialysis setup, where drug was transferred from outside a dialysis device to the inside. As compared to a dialysis configuration, the reverse-dialysis configuration provides an advantage in terms of allowing for better control of dilution and maximum drug concentration gradient across oil/water interface to drive the drug release. Diffusion of difluprednate through dialysis membrane was determined in a USP 2 apparatus setup (Vision Elite 8, Teledyne Hanson Research, with mini-vessels 800) using commercially available dialysis tubes 808 (Float-A-Lyzer G2, 100 kD MWCO, regenerated cellulose, Spectrum Labs, CA, USA), as shown in FIG. 8A. Each dialysis tube 808 was cleaned with 1.0% w/v polysorbate-80 solution in deionized water and subsequently washed thoroughly with deionized water. Dialysis tubes 808, containing about 1 mL of the release media (i.e., 10 mM pH 7.4 phosphate buffer mixed with ethanol in the ratio of 80:20 v/v), were suspended inside the USP 2 mini-vessels 800. Agitation was controlled at 100 rpm and the temperature was maintained at 34° C. Using conduit 806, 1 mL of difluprednate solution (1 mg/mL in ethanol) was spiked directly into the vessel 800, which contained 200 mL release media 802, in order to achieve an initial drug concentration of 5 μg/mL.
(§1) Within dialysis tube 808, difluprednate concentration (e.g., drug that had diffused through the membrane filter of dialysis device 808) was monitored in real time using an in-situ fiber optic probe 804, in particular a fiber optic UV-Vis system (Pion μDiss Profiler™, Billerica, MA). The scanning frequency was once every minute for the first 6 hours, then it switched to once every 5 minutes for the next 18 hours. After first 24 hours, the scanning frequency was changed to once every 10 minutes for the next 40 hours. For the last 104 hours, the scanning frequency was once every 30 min. The total experimental time was 168 hours (7 days). Pure difluprednate solution diluted with release medium at the same concentration of 5 μg/mL was also monitored in parallel as a control to determine any possible change in drug concentration, e.g., due to degradation. Prior to the start of the experiment, UV signals were calibrated using various concentrations of difluprednate standard solutions (0.05, 0.10, 0.50, 1.00, 2.00, 3.00, 4.00, and 6.00 μg/mL). Zero Intercept Method (ZIM) analysis was performed to remove polysorbate-80 interference by using wavelength within the range of 271-274 nm (exact ZIM wavelength varied between probes). Ethanol was used as a co-solvent to prevent the precipitation of difluprednate in the release media.

The nature of data set [2]: Control: pure difluprednate solution diluted with release medium, monitored for degradation. The conditions noted are these: control sample, at 24 hrs; 5 μg/mL in release medium; n=1. Here is the method:
as §1

Data set [3] can be described thus: Adaptive perfusion (AP) IVRT with 100 kD MWCO mPES hollow fiber filter. The conditions noted are these: AP method. An excerpt: The setup 1000 includes a fresh media reservoir 1002, a particulate filtering device 1004 attached to the fresh media tubing (to prevent particulate contamination), two peristaltic pumps (a first pump 1014 for the sample feed and a second pump 1006 for the fresh media), two additional reservoirs (a first reservoir 1008 for the retentate (also called the feed reservoir) and a second reservoir 1038 for the permeate (also called the permeate reservoir)), a pre-conditioned TFF filter (in particular, an HFF 1020, with first port 1022 and second port 1024 connected to a retentate volume and third port 1032 and fourth port 1040 connected to a permeate volume), a backpressure controlling valve 1028, a magnetic stirrer 1010, a stir plate 1012 for mixing the sample with the media, a pressure monitoring system with three pressure sensors (inlet sensor 1018, retentate sensor 1026, and permeate sensor 1034), a mass flow monitoring system (e.g., flow-meter 1036), a data acquisition system (e.g., computer with software), and a fluid circuit 1030 (e.g., tubing) for interconnecting the various components. HFF 1020 was a Spectrum MicroKros®, 100 kD MWCO, modified polyether sulfone (mPES) membrane, 20 cm^2 surface area (Repligen Corporation, CA, USA). An initial drug product sample of a particular concentration and/or volume was manually spiked into the first reservoir 1008 using conduit 1016.
Pure difluprednate solution and difluprednate polysorbate-80 micelles was evaluated using the setup 1000 of FIG. 10. For pure difluprednate solution, 200 μL of difluprednate solution (1 mg/mL in ethanol) was spiked (via conduit 1016) into 40 mL of release media (10 mM pH 7.4 phosphate buffer mixed with ethanol in the ratio of 80:20 v/v) in reservoir 1008 to reach an initial difluprednate concentration of 5 μg/mL. Ethanol was used as a co-solvent to prevent the precipitation of difluprednate in the media. Difluprednate concentrations in the retentate reservoir 1008 and permeate reservoir 1038 were determined in real time using an in-situ fiber optic UV-Vis system (Pion μDiss Profiler™, Billerica, MA). ZIM analysis was performed to remove polysorbate-80 interference by using wavelength within the range of 271-274 nm (exact ZIM wavelength varied between probes). For difluprednate polysorbate-80 micelles, 1 mL of difluprednate polysorbate-80 micelle solution (100 μg/mL in 3.6% w/v polysorbate-80) was spiked (via conduit 1016) into 40 mL of the release media (10 mM pH 7.4 phosphate buffer) in reservoir 1008 to obtain an initial difluprednate concentration of 2.5 μg/mL. Aliquots of retentate and permeate were collected periodically from the retentate reservoir 1008 and from the permeate tubing (between third port 1032 and permeate reservoir 1038), respectively, and subjected to UPLC analysis to determine difluprednate concentration. Appropriate dilution was performed for the retentate aliquots by using acetonitrile prior to UPLC analysis. The study was conducted at ambient room temperature (i.e., 23.5±1.5° C.).
Several TFF hollow fiber filter modules having different MWCO of 30 kD, 100 kD, 300 kD and 500 kD (Spectrum MicroKros®, modified polyether sulfone (mPES) membrane, 20 cm^2 surface area, Repligen Corporation, CA, USA) were screened initially to select an optimal MWCO for the TFF filter for performing the in vitro release studies. 100 kD MWCO was eventually selected considering the range of globule sizes to be evaluated for the nanoemulsions. 200 μL of nanoemulsion was spiked (via conduit 1016) directly into 40 mL of media (10 mM pH 7.4 phosphate buffer) in reservoir 1008 to provide an initial concentration of 2.5 μg/mL for difluprednate. Aliquots of retentate and permeate were collected periodically from the retentate reservoir 1008 and from the permeate tubing (between outlet 1031 and 1038), respectively, and subjected to UPLC analysis to determine difluprednate concentration. […]

Experimental findings from patent publication US20240069001A1, “ADAPTIVE PERFUSION SYSTEMS AND METHODS FOR DRUG RELEASE TESTING” (The United States of America, as represented by the …, priority 2020, published 2024) are described below.

`CCCC(=O)O[C@]1(C(=O)COC(C)=O)CC[C@H]2[C@@H]3C[C@H](F)C4=CC(=O)C=C[C@]4(C)[C@@]3(F)[C@@H](O)C[C@@]21C` [Pure drug (DFP) solution, Difluprednate]: in data set [1] (100 kD MWCO), the “drug diffused at plateau” value is “about 75%” and the “time for difluprednate concentration to reach plateau” value is approximately 8 h. For the same compound, the “time for 50% of difluprednate to diffuse across the dialysis membrane” value in data set [1] (100 kD MWCO, 100 rpm, 5 μg/mL) is on record as “more than 3 hours”. Moreover, in data set [1] (inside dialysis tube), the “time after which decrease in difluprednate concentration was observed (degradation in alkaline media)” value is given as “about 10 hours”. Besides, the “pure drug remaining in the bulk media” value in data set [2] was 85%. In addition, the “time to reach 90% of drug release” value in data set [3] (permeate (FIG. 12A)) was “less than 15 minutes”. Also, in data set [3] (Mean ± SD, n = 3), the “Permeate Maximum Drug Release” value came to 93.7 ± 5.5% and the “Permeate t50” value worked out at 5.3 ± 0.6 min. For the same compound, the “Permeate k* (first-order rate constant)” value in data set [3] (Q = 100*(1 − e^−k*t), Mean ± SD, n = 3, room temperature) came out at 0.146 ± 0.018 min⁻¹. Besides, the “Retentate k* (first-order rate constant)” value in data set [3] (Q = 100*e^−k*t, Mean ± SD, n = 3, room temperature) was found to be 0.211 ± 0.056 min⁻¹. For the same compound, the “difluprednate transferred across the membrane (into the permeate)” value in data set [3] (in less than 15 minutes) is “more than 90%”.
